These are literature values, as cited in patent US20040228911A1, “Vinorelbine compositions and methods of use” (NeoPharm, Inc., priority 2001, published 2004).

The conditions of data set [1]: distilled water.
In a further data set the test system is mitotic microtubules. As to conditions: intact tectal plates from mouse embryos.
For the next data set, the system named is axonal microtubules. As to conditions: intact tectal plates from mouse embryos.

Each structure is given as a SMILES string. Counter-ions that a name gives are not always drawn.

As to `CCC1=C[C@@H]2CN(C1)Cc1c([nH]c3ccccc13)[C@@](C(=O)OC)(c1cc3c(cc1OC)N(C)[C@H]1[C@@](O)(C(=O)OC)[C@H](OC(C)=O)[C@]4(CC)C=CCN5CC[C@]31[C@@H]54)C2` [Vinorelbine tartrate, 3′,4′-didehydro-4′-deoxy-C-norvincaleukoblastine [R—(R,R)-2,3-dihydroxybutanedioate (1:2)(salt)]], in data set [1], the aqueous solubility entry is recorded as “less than 1000 mg/mL”.
In the case of `CC[C@]1(O)C[C@@H]2CN(CCc3c([nH]c4ccccc34)[C@@](C(=O)OC)(c3cc4c(cc3OC)N(C)[C@H]3[C@@](O)(C(=O)OC)[C@H](OC(C)=O)[C@]5(CC)C=CCN6CC[C@]43[C@@H]65)C2)C1` [vinblastine], in the data set on mitotic microtubules, the “concentration inhibiting mitotic microtubule formation, inducing a blockade of cells at metaphase” value was 2 µM. In the data set with axonal microtubules, the “concentration producing depolymerization of axonal microtubules” value (shortened to “concentration producing depolymerization”) is 30 µM.
`CC[C@]1(O)C[C@H]2CN(CCc3c([nH]c4ccccc34)[C@@](C(=O)OC)(c3cc4c(cc3OC)N(C=O)[C@H]3[C@@](O)(C(=O)OC)[C@H](OC(C)=O)[C@]5(CC)C=CCN6CC[C@]43[C@@H]65)C2)C1` [vincristine]: the “concentration inhibiting mitotic microtubule formation, inducing a blockade of cells at metaphase” value in the data set on mitotic microtubules is 2 µM. The “concentration producing depolymerization” value in the data set with axonal microtubules is 5 µM.
For the compound `CCC1=C[C@@H]2CN(C1)Cc1c([nH]c3ccccc13)[C@@](C(=O)OC)(c1cc3c(cc1OC)N(C)[C@H]1[C@@](O)(C(=O)OC)[C@H](OC(C)=O)[C@]4(CC)C=CCN5CC[C@]31[C@@H]54)C2` [vinorelbine, 3′,4′-didehydro-4′-deoxy-C-norvincaleukoblastine [R—(R,R)-2,3-dihydroxybutanedioate (1:2)(salt)]], in the data set with mitotic microtubules, the “concentration inhibiting mitotic microtubule formation, inducing a blockade of cells at metaphase” value is 2 µM. The “concentration producing depolymerization” value with axonal microtubules was 40 µM.
